Assay results: publication PMC9404985, “Development of Dicationic Bisguanidine-Arylfuran Derivatives as Potent Agents against Gram-Negative Bacteria” (Antibiotics, 2022)
Where two headings read alike, the source gives them in different places.

Key:
[1] = system: P. caledonica (NBRC/ATCC #102488); test: Antibacterial resazurin assay, laboratory strain; details: for EC50 / EC90: Paraburkholderia caledonica, ATCC102488, 18 h; for EC50: read-out: Pcal EC50; for EC90: read-out: Pcal EC90; for Selectivity index P. caledonica: mean of MCF-7 and HepG2 EC50 over bacterial EC50, laboratory strain
[2] = system: B. subtilis (NBRC/ATCC #111470); test: Antibacterial resazurin assay, laboratory strain; details: for EC50 / EC90: Bacillus subtilis, ATCC111470, 18 h; for EC50: read-out: Bsu EC50; for EC90: read-out: Bsu EC90; for Selectivity index B. subtilis: mean of MCF-7 and HepG2 EC50 over bacterial EC50, laboratory strain
[3] = system: P. carotovorum (NBRC/ATCC #3380); test: Antibacterial resazurin assay, laboratory strain; details: for EC90: read-out: Pcar EC90; for Selectivity index P. carotovorum: mean of MCF-7 and HepG2 EC50 over bacterial EC50, laboratory strain
[4] = system: K. pneumoniae (CCUG #225T); test: Antibacterial activity against isolates (Omnilog, Biolog redox dye); type: cell-based, Klebsiella pneumoniae; details: for EC50 / EC90: Klebsiella pneumoniae, ca-MH broth, 24 h, 37 °C; for Selectivity index K. pneumoniae (CCUG #225T): SI = ((EC50 MCF-7 + EC50 HepG2)/2)/EC50 bacterial strain
Experimental: (§1) The antibacterial activities of eight compounds (1, 3, 4, 6, 8, 10, 16, and 17) were tested against 10 different isolates of Gram-negative bacteria from human and other sources, two E. coli (CCUG #67180 and CCUG #17620/ATCC #25922, control strain), two K. pneumoniae (CCUG #58547 and CCUG #225T), two P. aeruginosa (CCUG #17619 and CCUG #59347), two A. baumannii (CCUG #57035 and CCUG #57250), E. cloacae (CCUG #6323T), and E. hormaechei (CCUG #58962) in a 96-well plate format. The compounds to test were 3-fold diluted in six steps in cation-adjusted Mueller-Hinton (ca-MH) broth to final concentrations spanning from 30 to 0.12 µM, i.e., a 1667–416,667 times dilution from the 50 mM stocks. Bacterial mass from the ten isolates grown overnight on horse blood or Mueller–Hinton agar plates was suspended in ca-MH and adjusted to a final inoculum cell density of ~5 × 10^5 CFU/mL. For all assays, Biolog redox dye A diluted 100× from the stock solution was used for measurements of all ten isolates (up to a total volume of 120 µL per well). All plates included one well per isolate with only inoculum and dye but no test compound (i.e., positive control) and one well per isolate with inoculum, dye and DMSO diluted 1667×, corresponding to the DMSO concentration in the wells with the highest concentration of test compound. All measurements were performed using the Omnilog microplate reader (Biolog, Hayward, CA, USA) where the 96-well plates were read at 15 min intervals for a total of 24 h at 37 °C.

[5] = system: P. aeruginosa (CCUG #17619); test: as above; type: cell-based, Pseudomonas aeruginosa; details: for EC50 / EC90: Pseudomonas aeruginosa, CCUG17619, ca-MH broth, 24 h, 37 °C; for Selectivity index P. aeruginosa (CCUG #17619): SI = ((EC50 MCF-7 + EC50 HepG2)/2)/EC50 bacterial strain
Experimental: as §1

[6] = system: K. pneumoniae (CCUG #58547); test: as above; type: cell-based, Klebsiella pneumoniae; details: for EC50 / EC90: Klebsiella pneumoniae, CCUG58547, ca-MH broth, 24 h, 37 °C; for Selectivity index K. pneumoniae (CCUG #58547): SI = ((EC50 MCF-7 + EC50 HepG2)/2)/EC50 bacterial strain
Experimental: as §1, with “The compounds to test were 3-fold diluted in six steps in cation-adjusted Mueller-Hinton (ca-MH) broth to final concentrations spanning from 30 to 0.12 µM, i.e., a 1667–416,667 times dilution from the 50 mM stocks.” left out

[7] = Cytotoxicity assay (PrestoBlue) MCF-7; type: cell-based; details: human, MCF-7 cells (breast cancer cell line), 24 h incubation
Experimental: The cytotoxicity levels of all compounds were evaluated against human Michigan Cancer Foundation-7 (MCF-7) and Hepatoma G2 cell line (HepG2) cell lines. MCF-7 is an extensively characterized breast cancer cell line isolated in 1970 [41], while HepG2 cells were derived from a hepatoma in 1975 [42]. Both cell lines grow robustly during in vitro culture and have been widely used for cytotoxicity testing. Cells of hepatic origin, such as HepG2, are of particular relevance for toxicity studies as many drugs accumulate in the liver during metabolic conversion. Cells were grown in Dulbecco’s Modified Eagle Medium supplemented with 10% fetal calf serum and kept in exponential growth, as previously reported. Before the assay, cells were reseeded into 96-well microtiter plates at a density allowing continued exponential growth and let to settle for 24 h. The compounds were added from a stock solution in DMSO, for a final concentration of 0.3% v/v of the solvent in the culture medium. After 24 h of incubation in presence of the compound, cell viability was assayed using PrestoBlue Cell Viability Reagent (resazurin-based solution, ThermoFisher, Waltham, MA, USA) according to the manufacturer’s instructions. […] Each assay contained a DMSO control at the equivalent starting concentration, positive control (uninhibited cell growth) and negative control (cell medium only). Survival was expressed as percentage of the solvent-only control. […] The Selectivity Index (SI) for each compound and bacterial strain was calculated as the ratio between the mean of the EC50 values for the two human cell lines and the EC50 for the bacterial strain in question ((EC50 MCF-7 + EC50 HepG2)/2)/EC50 bacterial strain).

[8] = system: P. putida (NBRC/ATCC #100650); test: Antibacterial resazurin assay, laboratory strain; details: for EC90: read-out: Ppu EC90; for Selectivity index P. putida: mean of MCF-7 and HepG2 EC50 over bacterial EC50, laboratory strain
[9] = system: E. hormaechei (CCUG #58962); test: Antibacterial activity against isolates (Omnilog, Biolog redox dye); type: cell-based, Enterobacter hormaechei; details: for EC50 / EC90: Enterobacter hormaechei, CCUG58962, ca-MH broth, 24 h, 37 °C; for Selectivity index E. hormaechei (CCUG #58962): SI = ((EC50 MCF-7 + EC50 HepG2)/2)/EC50 bacterial strain
Experimental: as §1, with “The compounds to test were 3-fold diluted in six steps in cation-adjusted Mueller-Hinton (ca-MH) broth to final concentrations spanning from 30 to 0.12 µM, i.e., a 1667–416,667 times dilution from the 50 mM stocks.” left out

[10] = Pectobacterium carotovorum, ATCC3380, 18 h, read-out: Pcar EC50, laboratory strain, 18 h, 37 °C, AlamarBlue
[11] = Pectobacterium carotovorum, ATCC3380, 18 h
[12] = Pseudomonas putida, ATCC100650, 18 h, read-out: Ppu EC50, laboratory strain, 18 h, 37 °C, AlamarBlue
[13] = Pseudomonas putida, ATCC100650, 18 h
[14] = read-out: Pcar EC50, laboratory strain, 18 h, 37 °C, AlamarBlue
[15] = read-out: Ppu EC50, laboratory strain, 18 h, 37 °C, AlamarBlue

Compound	EC50 [1]	EC90 [1]	Selectivity index P. caledonica [1]	EC50 [2]	EC90 [2]	EC50 [3, 10]	EC90 [3, 11]	Selectivity index P. carotovorum [3]	EC50 [4]	EC90 [4]	EC50 [5]	EC90 [5]	EC50 [6]	EC90 [6]	EC50 at 24 h [7]	EC50 [8, 12]	EC90 [8, 13]	Selectivity index P. putida [8]	EC50 [9]	EC90 [9]	further results
N=C(N)Nc1ccc(-c2ccc(-c3ccc(NC(=N)N)cc3Cl)o2)c(Cl)c1 [Compound 1, 2,5-Bis(2-chloro-4-guanidinophenyl)furan]	20.3 µM	136 µM	1.9	25.4 µM	136 µM	67.1 µM	115 µM	0.6	2.7 µM	3.2 µM	4.8 µM	6.7 µM	5.2 µM	8 µM	34.4 µM	258 µM	517 µM	0.2	7.7 µM	9.1 µM	Selectivity index B. subtilis [2]: 1.5; Selectivity index K. pneumoniae (CCUG #225T) [4]: 14.4; Selectivity index P. aeruginosa (CCUG #17619) [5]: 8.1; Selectivity index K. pneumoniae (CCUG #58547) [6]: 7.5; Selectivity index E. hormaechei (CCUG #58962) [9]: 5.0
N=C(N)Nc1ccc(-c2ccc(-c3ccc(NC(=N)N)cc3)o2)cc1 [Compound 3]	4.5 µM	18.9 µM	27.4	11.2 µM	22.5 µM	34.6 µM	79 µM	3.6	2.8 µM	3.1 µM	9 µM	11.1 µM	5.6 µM	8.3 µM	64.5 µM	8.3 µM	14.3 µM	15.0	7.6 µM	9.1 µM	Selectivity index B. subtilis [2]: 11.1; Selectivity index K. pneumoniae (CCUG #225T) [4]: 45.2; Selectivity index P. aeruginosa (CCUG #17619) [5]: 13.8; Selectivity index K. pneumoniae (CCUG #58547) [6]: 22.1; Selectivity index E. hormaechei (CCUG #58962) [9]: 16.4
Cc1cc(NC(=N)N)ccc1-c1ccc(-c2ccc(NC(=N)N)cc2C)o1 [Compound 4, 2,5-Bis(4-guanidino-2-methylphenyl)furan]	8.2 µM	51.9 µM	9.2	6.2 µM	8.5 µM	~28.5 µM	37.3 µM	2.6	15.3 µM	22.7 µM	17.9 µM	25.4 µM	17.1 µM	22.4 µM	> 100 µM	~14.4 µM	59.6 µM	5.2	21.9 µM	25.9 µM	Selectivity index B. subtilis [2]: 12.2; EC50 [3, 14]: 28.6 µM; Selectivity index K. pneumoniae (CCUG #225T) [4]: 4.9; Selectivity index P. aeruginosa (CCUG #17619) [5]: 4.2; Selectivity index K. pneumoniae (CCUG #58547) [6]: 4.4; EC50 [8, 15]: 14.5 µM; Selectivity index E. hormaechei (CCUG #58962) [9]: 3.4
COc1cc(NC(=N)N)ccc1-c1ccc(-c2ccc(NC(=N)N)cc2OC)o1 [Compound 6, 2,5-Bis(4-guanidino-2-methoxyphenyl)furan]	25.6 µM	35.6 µM	5.6	> 300 µM	> 300 µM	~28.5 µM	45 µM	5.1	10.3 µM	12.7 µM	24.6 µM	28.7 µM	13 µM	13.7 µM	74.7 µM	~14.4 µM	19.7 µM	10.1	15.9 µM	22.9 µM	EC50 [3, 14]: 28.4 µM; Selectivity index K. pneumoniae (CCUG #225T) [4]: 14.0; Selectivity index P. aeruginosa (CCUG #17619) [5]: 5.9; Selectivity index K. pneumoniae (CCUG #58547) [6]: 11.1; EC50 [8, 15]: 14.3 µM; Selectivity index E. hormaechei (CCUG #58962) [9]: 9.0
COC(=O)c1cc(NC(=N)N)ccc1-c1ccc(-c2ccc(NC(=N)N)cc2C(=O)OC)o1 [Compound 8, 2,5-Bis(4-guanidino-2-(methylcarboxy)phenyl)furan]	> 300 µM	> 300 µM	–	22.5 µM	43.6 µM	140 µM	158 µM	1.7	5.6 µM	7.9 µM	> 200 µM	> 200 µM	10.3 µM	13.3 µM	81.6 µM	68.4 µM	92.1 µM	3.6	8.3 µM	8.7 µM	Selectivity index B. subtilis [2]: 10.8; Selectivity index K. pneumoniae (CCUG #225T) [4]: 43.3; Selectivity index K. pneumoniae (CCUG #58547) [6]: 23.6; Selectivity index E. hormaechei (CCUG #58962) [9]: 29.4
N=C(N)NCc1ccc(-c2ccc(-c3ccc(CNC(=N)N)cc3)o2)cc1 [Compound 10, 2,5-Bis(4-guanidinomethylphenyl)furan]	2.9 µM	5 µM	31.8	> 300 µM	> 300 µM	43.6 µM	61.2 µM	2.1	> 200 µM	> 200 µM	> 200 µM	> 200 µM	> 200 µM	> 200 µM	48.6 µM	25.6 µM	36.7 µM	3.6	> 200 µM	> 200 µM	–
